Source: publication PMC10906223 (JCI Insight, 2024)
Where “and” joins values, the source holds several entries; their conditions need not be identical. Equal values may be shown once.

Experiments:
[1] = system: mouse dispersed islet cells; assay: Immunofluorescence: F-actin intensity in glucagon+ mouse dispersed islet cells; type: cell-based;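 as to F-actin intensity: ImageJ intensity within ROI drawn around each glucagon+ cell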
Description: Coverslips were treated with WCDD301, preclustered Ephrin-A5 Fc, or preclustered Fc in the following sequential order: KRBH (11 mM glucose, 30 minutes), KRBH (1 mM glucose, 60 minutes), KRBH (1 mM glucose, 30 minutes), and KRBH (11 mM glucose, 60 minutes). After treatment, coverslips were washed once in PBS, fixed in 2% paraformaldehyde in PBS (30 minutes), and again washed in PBS. […] Following wash in PBS, coverslips were incubated in a mixture of Alexa Fluor 555 Phalloidin (Cell Signaling Technology, catalog 8953) and secondary antibodies (goat anti-rabbit Alexa Fluor 488, catalog A-21094, 1:1,000, Molecular Probes; and goat anti-mouse Alexa Fluor 633, catalog A21052, 1:1,000, Life Technologies) for 1 hour at RT. Both primary and secondary antibodies were diluted in blocking buffer containing 0.05% Tween 20. Coverslips were washed using PBS and counterstained by using DAPI (1:1,000) for 10 minutes. Following 2 washes in PBS, coverslips were mounted on glass slides using ProLong Glass Antifade Mountant (Invitrogen, catalog P36980). Images were captured using the Zeiss LSM880 microscope with a Plan-Apochromat 63× 1.4 NA objective lens by setting dual-band dichroic/filter for 405, 488, 561, and 633 nm laser excitation. For each slide, 25–30 fields of view were scanned, and in each field of view, 3–5 cells were imaged. […] Values of intensity were compared among groups using 1-way ANOVA, α = 0.05.

[2] = system: dispersed mouse islet cells; assay: EphA4 shedding into culture medium (EphA4 ELISA); type: cell-based; details: Supplemental Figure 4D
Description: Pancreata of nondiabetic C57BL/6J mice were digested using collagenase P (Roche Diagnostics, catalog 11213873001), and islets were manually picked up using a stereomicroscope (ZEISS Stemi 305). […] Isolated mouse islets or provided human islets were dispersed as described ([28]). Briefly, 100–120 islets were washed 2 times using modified HBSS, then dispersed in 600 μL Accutase (Innovative Cell Technologies, catalog AT-104) by gently pipetting up and down for 7 minutes at 37°C. […] Following refreshing of KRBH, cells were dispensed in 8 microfuge tubes (2,000 cells/tube) and treated with WCDD301, preclustered Ephrin-A5 Fc, or preclustered Fc in the presence or absence of the competitive inhibitor of EphA4 receptor, rhyncophylline ([60]) (MilliporeSigma, catalog SML2345). In the presence or absence of these effectors, secretion assay was performed sequentially as shown in Supplemental Table 5. […] Preclustering of Ephrin-A5 Fc was done by mixing Ephrin-A5 Fc or Fc alone (BioLegend, catalog 790102) with anti-Fc antibody (Invitrogen, catalog A16086) (1:10 molar ratio) 20 minutes before treatment ([62]). […] Shedding of cleaved EphA4 was measured from the cell culture medium. Experiments were performed by dispersion of 200 islets, and EphA4 levels in media were measured by EphA4 ELISA (ABclonal, catalog RK06572).

In the case of `CC(=O)OCC(N)(COC(C)=O)COC(C)=O` [WCDD301, 2-(acetoxymethyl)-2-aminopropane-1,3-diyl diacetate], the “Effect on intracellular F-actin” value ([1]; dispersed mouse islet cells) is reported as “increased intracellular F-actin intensity”, the F-actin intensity ([1]; mouse cells, individual values, Figure 3F) is reported as 7.9 and 8.3 and 9.3 and 13.4 and 7.5 and 18.4 and 8.1 and 17.0 and the “Shedding of EphA4 into the cell culture medium” value [2] is reported as “reduced shedding of EphA4 into the cell culture medium”.
